Series [1] is described as follows: Dynamic surface tension (SITA science line t60 bubble pressure). The settings on record: for dynamic surface tension: 100 ppm Bardac […] + sulfate based anionic surfactant at mole:mole ratio, FIGS. 4A-4C.
Description: The SITA science line t60 measures the dynamic surface tension of liquids up to the semi-static range. Air bubbles are generated from a capillary with known radius. The bubble pressure is measured as a function of bubble life time, which can be correlated to the surface tension according to the Young-Laplace equation.
The SITA science line t60 was calibrated with DI water. Clean water samples after calibration should have a surface tension of 72.0 ±1.0 mN/m (depending on the quality and temperature). Following calibration, the SITA was programmed to take readings at the desired time intervals (i.e., 0.3, 1.6, 3.0, 9.1 seconds). In order to determine the effects on the surface activity of a 9:1 mass ratio of quaternary ammonium compound with an anionic surfactant the following compositions were prepared.
10-15 mL were transferred into 20 mL vials and immersed in a heated oil bath to 72° C. (160° F.)±2° C. The samples were equilibrated for 10-15 minutes. The samples were individually removed from the oil bath and tested in the SITA. After each sample was tested the SITA's cleaning procedure was run, then the surface tension of DI water was checked to ensure the SITA was adequately clean. If the DI water measurements were not within 72.0±1.0 mN/m, then the cleaning procedure was run again.
The SITA science line t60 was calibrated with DI water. Clean water samples after calibration should have a surface tension of 72.0±1.0 mN/m (depending on the quality and temperature). Following calibration, the SITA was programmed to take readings at the desired time intervals (i.e., 0.3, 1.6, 3.0, 9.1 seconds). In order to determine the effects on the dynamic surface tension of Bardac LF80 and varying concentrations of Acusol 445 the following five solutions were analyzed at pH 7.0; 100 ppm Bardac LF80; 10 ppm Acusol 445; 100 ppm Bardac LF80+10 ppm Acusol 445; 100 ppm Bardac LF80+30 ppm Acusol 445; and 100 ppm Bardac LF80+75 ppm Acusol 445.
Series [2] deals with bacteria. Put plainly: Antimicrobial efficacy at pH 8.0, 7.5 to 1 mass ratio (FIG. 6B). Type of series: cell-based. The note with it: 7.5/1 mass ratio; for antimicrobial efficacy: 150 ppm Bardac […] + anionic surfactant; for log reduction of bacteria: 300 ppm Bardac […] + anionic surfactant. The protocol: Further examination of the antimicrobial efficacy of a quaternary ammonium compound in association with an anionic surfactant at pH 8.0 was performed as described above.

Series [3] relates to Staphylococcus. The series can be described thus: Antimicrobial suspension test of quat-anionic surfactant compositions (Examples 6, 8). It counts as cell-based, Staphylococcus aureus. The note with it: for kill properties on Staphylococcus: 300, 150 and 75 ppm active Bardac […] + anionic surfactant, 7.5:1 mass ratio, pH 8, FIG. 8; for antimicrobial efficacy against Staphylococcus: FIG. 6A.

The subject of series [4] is Escherichia coli. The series can be described thus: Antimicrobial suspension test of quat-anionic surfactant compositions (Examples 6-7). Type of series: cell-based. The settings on record: for antimicrobial efficacy against E. coli (log reduction of bacteria): 300 ppm Bardac […] + anionic surfactant, mole:mole ratio, pH 8, FIG. 7; for log reduction of bacteria for E. coli: 300 ppm active Bardac […] + anionic surfactant, 7.5/1 mass ratio, FIG. 6A.

Series [5] relates to E. coli. Put plainly: Third sink sanitizer (Example 12). It counts as cell-based, Escherichia coli. The settings on record: 500 ppm water hardness, neutral pH versus pH 4.5. Here is the method: The antimicrobial efficacy of quaternary ammonium compounds and anionic surfactants for use as a third sink sanitizer were evaluated as shown in Table 10.
The mark [6] stands for this setting: 100 ppm Bardac […] + anionic carboxylate surfactant at mole:mole ratio, FIG. 3A.
The mark [7] stands for this setting: Bardac […] + anionic sulfate surfactant at mole:mole ratio, FIG. 2.
Setting [8] is: 300 ppm Bardac […] + anionic surfactant, mole:mole ratio.
Setting [9] is: 300 ppm active Bardac […] + anionic surfactant, 7.5/1 mass ratio.

Take `CCCCC(CC)C(=O)O` (centres unmarked) [ethylhexoic acid]: the “dynamic surface activity (surface tension versus bubble life time)” value in series [1] (setting [6]) is reported as “capable of increasing the surface activity, to variable extents, compared to Bardac 205M alone”. In series [2], the antimicrobial efficacy result was “good antimicrobial efficacy” and the “log reduction of bacteria” value is “highest log reduction of bacteria”. Moreover, the “kill properties on Staphylococcus” value in series [3] was “excellent kill properties on Staphylococcus”. Moreover, the “antimicrobial efficacy against E. coli (log reduction of bacteria)” value in series [4] was “highest log reduction of bacteria”.

As to `CCCCC(CC)COS(=O)(=O)[O-].[Na+]` (centres unmarked) [EH-S, Sodium 2-ethyl hexyl sulfate], in series [1], the dynamic surface tension result was “synergistic reduction of surface tension”. Besides, the “dynamic surface activity (surface tension versus bubble life time)” value in series [1] (setting [7]) is “rapid increase in surface activity”. Further, the “log reduction of bacteria” value in series [2] is on record as “highest log reduction of bacteria”. Also, the “kill properties on Staphylococcus” value in series [3] was “excellent kill properties on Staphylococcus”. Further, the “antimicrobial efficacy against Staphylococcus” value in series [3] (setting [8]) is reported as “good antimicrobial efficacy against Staphylococcus”. For the same compound, in series [4], the “antimicrobial efficacy against E. coli (log reduction of bacteria)” value was “reduce the antimicrobial activity of the quaternary ammonium compound” and the “log reduction of bacteria for E. coli” value is “highest log reduction of bacteria for E. coli”.

On to `CCCCCCCCS(=O)(=O)[O-].[Na+]` [NAS-FAL, sodium n-octanesulfonate], for which the dynamic surface tension result in series [1] is given as “synergistic trend in regards to reduced surface tension”. Also, the “dynamic surface activity (surface tension versus bubble life time)” value in series [1] (setting [7]) is on record as “rapid increase in surface activity”. In series [2], the “log reduction of bacteria” value is on record as “highest log reduction of bacteria”. In addition, the “antimicrobial efficacy against Staphylococcus” value in series [3] (setting [8]) is “good antimicrobial efficacy against Staphylococcus”. Further, the “antimicrobial efficacy against E. coli (log reduction of bacteria)” value in series [4] was “reduce the antimicrobial activity of the quaternary ammonium compound”.

For the compound `CC(O)(P(=O)(O)O)P(=O)(O)O` [HEDP, 1-hydroxy ethylidene-1,1-diphosphonic acid], the dynamic surface activity result in series [1] (100 ppm Bardac LF80 + 10-75 ppm HEDP, pH 7.0, FIG. 18) is on record as “increase in dynamic surface activity of Bardac LF80 in combination with HEDP”.

`CCCCCCCCCCCCOS(=O)(=O)[O-].[Na+]` [SLS, sodium lauryl sulfate]: in series [1], the dynamic surface tension result is “reduced dynamic surface tension, as compared to either the quaternary ammonium compound or the anionic surfactant alone”. Besides, in series [1] (setting [7]), the “dynamic surface activity (surface tension versus bubble life time)” value is given as “overall increase in surface activity compared to Bardac 205M alone, but displayed slower dynamics”. Also, the “log reduction of bacteria” value in series [2] is “highest log reduction of bacteria”. Further, the “antimicrobial efficacy against Staphylococcus” value in series [3] (setting [9]) is on record as “good antimicrobial efficacy against Staphylococcus”. In addition, in series [4], the “antimicrobial efficacy against E. coli (log reduction of bacteria)” value is on record as “reduce the antimicrobial activity of the quaternary ammonium compound” and the “log reduction of bacteria for E. coli” value is recorded as “highest log reduction of bacteria for E. coli”.

With `CC(C(=O)[O-])N(CC(=O)[O-])CC(=O)[O-].[Na+].[Na+].[Na+]` (centres unmarked) [Trilon M, methyl glycine diacetic acid (MGDA)], the “dynamic surface activity, effect of pH” value in series [1] (100 ppm Bardac LF80 + 100 ppm Trilon M at pH 3.0, 9.0, 11.0, FIG. 21) was “independent of pH”.

As for `CCCCCCCC(=O)O` [octanoic acid], the “dynamic surface activity (surface tension versus bubble life time)” value in series [1] (setting [6]) is “capable of increasing the surface activity, to variable extents, compared to Bardac 205M alone”. For the same compound, in series [2], the antimicrobial efficacy result was “good antimicrobial efficacy” and the “log reduction of bacteria” value was “highest log reduction of bacteria”. Besides, in series [3], the “kill properties on Staphylococcus” value is given as “excellent kill properties on Staphylococcus”. For the same compound, the “antimicrobial efficacy against E. coli (log reduction of bacteria)” value in series [4] was “highest log reduction of bacteria”.

On to `CCCCCCCCCCCC(=O)O` [lauric acid], for which the “dynamic surface activity (surface tension versus bubble life time)” value in series [1] (setting [6]) is listed as “capable of increasing the surface activity, to variable extents, compared to Bardac 205M alone”.

Consider sodium lauryl ether sulfate [SLES], for which, in series [1] (100 ppm Bardac […] + surfactant at 9:1 mass ratio, 160° F., FIG. 1), the “dynamic surface activity (surface tension versus bubble life time)” value is reported as “do not display the synergistic boost in surface activity”. In series [1] (setting [7]), the “dynamic surface activity (surface tension versus bubble life time)” value was “overall increase in surface activity compared to Bardac 205M alone, but displayed slower dynamics”. In series [2], the antimicrobial efficacy entry is reported as “good antimicrobial efficacy” and the “log reduction of bacteria” value was “highest log reduction of bacteria”. Further, the “antimicrobial efficacy against Staphylococcus” value in series [3] (setting [9]) is “good antimicrobial efficacy against Staphylococcus”. Also, in series [4], the “antimicrobial efficacy against E. coli (log reduction of bacteria)” value is “reduce the antimicrobial activity of the quaternary ammonium compound” and the “log reduction of bacteria for E. coli” value was “highest log reduction of bacteria for E. coli”.

Consider `CCCCCCCC/C=C\CCCCCCCC(=O)O` [Oleic acid], for which, in series [1] (setting [6]), the “dynamic surface activity (surface tension versus bubble life time)” value was “capable of increasing the surface activity, to variable extents, compared to Bardac 205M alone”.

Regarding `CCCCCCCCCC(=O)O` [decanoic acid], the “dynamic surface tension, effect of pH” value in series [1] (100 ppm Bardac […] + 56 ppm decanoic acid mole:mole, pH 3.6-10.2, FIG. 5B) is reported as “independent of pH”. Also, the “dynamic surface activity (surface tension versus bubble life time)” value in series [1] (100 ppm Bardac […] alone, 100 ppm Decanoate alone, or 100 ppm Bardac […] + 10-70 ppm Decanoic acid, FIG. 3B) is on record as “limited surface activity”. Further, the “effect on the antimicrobial efficacy of the quat” value in series [5] is recorded as ““synergizes” the quat”. Also, the “effect on the antimicrobial efficacy of the quat” value in series [5] (listed as decanoate) was ““deactivates” quat”. In series [2], the antimicrobial efficacy entry is given as “good antimicrobial efficacy” and the “log reduction of bacteria” value is on record as “highest log reduction of bacteria”. Moreover, the “kill properties on Staphylococcus” value in series [3] is given as “excellent kill properties on Staphylococcus”. Moreover, the “antimicrobial efficacy against E. coli (log reduction of bacteria)” value in series [4] was “reduce the antimicrobial activity of the quaternary ammonium compound”.

For the origin of these results see US10426162B2, “Interaction between antimicrobial quaternary compounds and anionic surfactants” (Ecolab USA Inc., priority 2016, dated 2019).
